Assay results reported in EP2737897A2, “Anti-inflammatory botanical products for the treatment of metabolic syndrome and diabetes” (Metaproteomics, LLC, priority 2005, dated 2007).
Converted amounts (≈) assume the structure as drawn. Like-named read-outs stand apart in the source and are kept apart here. Marks after values point to notes of the source that are not given here.

Experiments:
[1] = system: IL-6 secretion from insulin-resistant 3T3-L1 adipocytes; assay: IL-6 secretion from insulin-resistant 3T3-L1 adipocytes; format: cell-based, murine; conditions: Mus musculus
[2] = system: adiponectin secretion from insulin-resistant 3T3-L1 adipocytes
[3] = system: adiponectin secretion from insulin-resistant 3T3-L1 adipocytes; assay: cells; conditions: Mus musculus
3T3-L1 adipocytes = assay: Lipogenesis in 3T3-L1 adipocytes, Oil Red O or BODIPY staining; format: cell-based, murine
[4] = system: IL-6 secretion in LPS/3T3-L1 adipocytes; assay: IL-6 secretion in the lipopolysaccharide/3T3-L1 adipocyte model (Example 26); format: cell-based, murine; conditions: 100 ng LPS/ml
[5] = system: adiponectin secretion in LPS/3T3-L1 adipocytes; assay: Adiponectin secretion in the lipopolysaccharide/3T3-L1 adipocyte model (Example 26); conditions: 100 ng LPS/ml; for % Stimulation (maximum, adiponectin secretion): NS = not significantly different from the LPS control
PGE2 synthesis = assay: cells; format: cell-based, murine; conditions: for IC50: Mus musculus
COX-2 protein expression = assay: Western blot of COX-2 protein expression in LPS-stimulated RAW 264.7 cells (Example 8); format: cell-based, murine; conditions: 20 hours stimulation with LPS; compared to DMSO solvent control
NF-κB = NF-κB DNA binding of nuclear extracts of LPS-stimulated RAW 264.7 cells, TransAM NF-κB kit (Example 9); format: cell-based, murine; conditions: MgRIAA 55 and 14 µg/ml, parthenolide 80 µM, LY294002 25 µM; LPS 1 µg/ml 4 h
[6] = system: interleukin-6 secretion from TNFα-treated 3T3-L1 adipocytes; assay: Interleukin-6 secretion from TNFα-treated 3T3-L1 adipocytes; format: cell-based, murine; conditions: Mus musculus, 3T3-L1, read-out: IL-6 Index
NF-kBp65 = NF-kBp65 nuclear translocation in TNFα-treated D40 3T3-L1 adipocytes, TransAM ELISA (Example 32); format: cell-based, murine; conditions: 2.5 and 5.0 µg/ml; three or 24 hours following TNFα
Method: ELISA - 3T3-L1 adipocytes were maintained in growth media for 40 days following differentiation. Nuclear NF-kBp65 was determined using the TransAM™ NF-kB kit from Active Motif (Carlsbad, CA) was used with no modifications. […] Protein assay - Nuclear protein was quantified using the Active Motif Fluorescent Protein Quantificantion Kit. Statistical Analysis - Comparisons were performed using a one-tailed Student's t-test. The probability of a type I error was set at the nominal five percent level.

[7] = system: adiponectin secretion from TNFα-treated 3T3-L1 adipocytes; assay: Adiponectin secretion from TNFα-treated 3T3-L1 adipocytes; conditions: 10 ng TNFα/ml (Table 9)
[8] = system: resistin secretion from insulin-resistant 3T3-L1 adipocytes; assay: cells; conditions: Mus musculus, 3T3-L1, read-out: Resistin Index
Method: Resistin Assay - The amount of resistin secreted into the medium was quantified using the Quantikine® Mouse Resistin Immunoassay kit with no modifications (R&D Systems, Minneapolis, MN). […] All supernatant media samples were diluted 1:20 with dilution media supplied by the manufacturer before assay.
Statistical Calculations and Interpretation - All assays were preformed in duplicate. […] Differences among the doses were determined using the Student's t-test without correction for multiple comparisons; the nominal five percent probability of a type I error (one-tail) was selected.

[9] = 3T3-L1, read-out: Adiponectin Index
[10] = RAW264.7, read-out: Relative IC50

Work on CC(C)CCC1=C(O)C(CCC(C)C)(CCC(C)C)C(=O)C(C(=O)C(C)C)=C1O [Hexahydrocolupulone (HHCL), Hexahydrocolupulone] yielded an activity at 6.25 µg/mL ([1]; 3T3-L1, 6.25 µg/ml, indexed to insulin only control, read-out: IL-6 Index) of 100%, an activity at 25 µg/mL ([1]; 3T3-L1, 25.0 µg/ml, indexed to insulin only control, read-out: IL-6 Index) of 119% and an activity at 50 µg/mL ([1]; 3T3-L1, 50.0 µg/ml, indexed to insulin only control, read-out: IL-6 Index) of 277%. For the same compound, the “Adiponectin Index” value ([2]; 3t3-l1 adipocytes) was 1.71#, the fold induction at 6.25 µg/mL [3, 9] was 1.05 and the fold induction at 25 µg/mL [3, 9] was 1.62. It also gave a fold induction at 50 µg/mL [3, 9] of 1.65, a maximal fold induction ([3]; 3T3-L1, read-out: Maximum Adiponectin Secretion) of 1.83 and an EC50 ([3]; 3T3-L1, read-out: Test Material at Half Maximal Secretion) of 3.2 µg/mL. For the same compound, the “adipogenic response (lipid content relative to solvent control)” value (3T3-L1 adipocytes; hops compounds 10, 5, 4 or 2 µg/ml, spent hops 50 µg/ml, positive controls indomethacin 5.0 and troglitazone […]) was “failed to elicit a lipogenic response greater than the solvent controls”.
CC(=O)Oc1ccccc1C(=O)O [Aspirin] was tested, and the “Concentration (dose providing the maximum inhibition of IL-6 secretion)” value [4] was 25.0 µg/mL, the “Concentration (of maximum stimulation of adiponectin secretion)” value [5] was 113 µg/mL and the “% Stimulation (maximum, adiponectin secretion)” value (from here on “% Stimulation”) [5] was “failed to induce adiponectin secretion”.
In the case of O=c1c(O)c(-c2ccc(O)cc2)oc2cc(O)cc(O)c12 [Keampferol], the IC50 (PGE2 synthesis; RAW264.7) is reported as 4.3 µg/mL (≈ 15 µM) and the IC50 (PGE2 synthesis; [10]) is reported as 2 to 6 µg/mL (≈ 6.99 to 21 µM).
For C=C1C(=O)O[C@@H]2[C@H]3O[C@]3(C)CC/C=C(\C)CC[C@@H]12 [Parthenolide], the “reduction in COX-2 protein expression” value (COX-2 protein expression) was 22.5% and the “NF-κB DNA binding” value (NF-κB) was “significant reduction”.
For O=c1c(O)c(-c2ccc(O)c(O)c2)oc2cc(O)cc(O)c12 [Quercetin], the “Relative Potency” value (PGE2 synthesis) was “high”.
Compound c1cc2c(cc1[C@H]1OC[C@H]3[C@@H]1CO[C@@H]3c1ccc3c(c1)OCO3)OCO2 [Sesamin] has an IC50 (PGE2 synthesis; RAW264.7) of over 12 µg/mL and an IC50 (PGE2 synthesis; [10]) of over 12 µg/mL.
In the case of COc1ccc2cc3[n+](cc2c1OC)CCc1cc2c(cc1-3)OCO2 [Berberine], the IC50 (PGE2 synthesis; RAW264.7) is reported as 3.3 µg/mL and the IC50 (PGE2 synthesis; [10]) is reported as 2 to 6 µg/mL.
Oc1ccc(C=Cc2cc(O)cc(O)c2)cc1 [Resveratrol] gave an IC50 (PGE2 synthesis; RAW264.7) of 5.8 µg/mL (≈ 25.4 µM) and an IC50 (PGE2 synthesis; [10]) of 2 to 6 µg/mL (≈ 8.76 to 26.3 µM).
For CN(C)C(=N)N=C(N)N [Metformin], the activity at 1 µg/mL [6] was 91%, the activity at 5 µg/mL [6] was 96% and the activity at 10 µg/mL [6] was 78%. The activity at 50 µg/mL [6] was 78% and the activity at 50 µg/mL (3T3-L1 adipocytes; Mus musculus, 3T3-L1, read-out: lipogenic index (observed)) was 79%.
For CCc1ccc(CCOc2ccc(CC3SC(=O)NC3=O)cc2)nc1 (stereo not drawn) [Pioglitazone], the “amount of nuclear NF-kBp65” value (NF-kBp65) was “did not inhibit”, the “% Inhibition (maximum, IL-6 secretion)” value [4] was 63* % and the “% Stimulation” value [5] was 12%.
For O=c1c(O)c(-c2ccccc2)oc2cc(O)cc(O)c12 [Galangin], the “Relative Potency” value (PGE2 synthesis) was “high”.
Compound C[C@@H]1O[C@@H](OC[C@H]2O[C@@H](Oc3c(-c4ccc(O)c(O)c4)oc4cc(O)cc(O)c4c3=O)[C@H](O)[C@@H](O)[C@@H]2O)[C@H](O)[C@H](O)[C@H]1O [Rutin] has an IC50 (PGE2 synthesis; RAW264.7) of over 12 µg/mL and an IC50 (PGE2 synthesis; [10]) of over 12 µg/mL.
O=c1c(O)c(-c2cc(O)c(O)c(O)c2)oc2cc(O)cc(O)c12 [Myricetin] showed an IC50 (PGE2 synthesis; RAW264.7) of over 12 µg/mL and an IC50 (PGE2 synthesis; [10]) of over 12 µg/mL.
In the case of O=C(O)c1ccccc1O [Salicylic acid], the “Concentration (dose providing the maximum inhibition of IL-6 secretion)” value [4] is reported as 50.0 µg/mL, the “IL-6 Index (maximum inhibition)” value ([4]; [IL-6Test - IL-6Control]/[IL-6LPS - IL-6Control]) is reported as 0.52* and the “Concentration (of maximum stimulation of adiponectin secretion)” value [5] is reported as 173 µg/mL. For the same compound, the “% Stimulation” value [5] was “failed to induce adiponectin secretion”.
For O=c1c(-c2ccc(O)cc2)coc2cc(O)cc(O)c12 [Genistein], the “Relative Potency” value (PGE2 synthesis) was “high”.
For COc1ccc2c(c1)c(CC(=O)O)c(C)n2C(=O)c1ccc(Cl)cc1 [Indomethacin], the “% Inhibition (maximum, IL-6 secretion)” value [4] was 53* %, the “% Stimulation” value [5] was 9% and the activation at 5 µg/mL (3T3-L1 adipocytes; Mus musculus, 3T3-L1, read-out: increase of nonpolar lipid incorporation relative to the solvent controls) was 33%.
Oc1cc(O)c2c(c1)OC(c1ccc(O)c(O)c1)C(O)C2 (stereo not drawn) [Catechin] was tested, and the IC50 (PGE2 synthesis; RAW264.7) was over 12 µg/mL and the IC50 (PGE2 synthesis; [10]) was over 12 µg/mL.
Cc1c(C)c2c(c(C)c1O)CCC(C)(COc1ccc(CC3SC(=O)NC3=O)cc1)O2 (stereo not drawn) [Troglitazone] was tested, and the activity at 0.625 µg/mL ([1]; 3T3-L1, read-out: IL-6 Index) was 100%, the activity at 5 µg/mL ([1]; 3T3-L1, read-out: IL-6 Index) was 131% and the activity at 1 µg/mL [6] was 66%. For the same compound, the “Concentration (of maximum adiponectin secretion)” value [7] was 0.625 µg/mL, the “% Inhibition (maximum, IL-6 secretion)” value [4] was 69* % and the “Concentration (dose providing the maximum inhibition of IL-6 secretion)” value [4] was 10.0 µg/mL. The “Concentration (of maximum stimulation of adiponectin secretion)” value [5] was 0.625 µg/mL, the “% Stimulation” value [5] was 15% and the “concentration at which maximal adiponectin secretion was observed” value ([2]; of the four doses tested) was 2.5 µg/mL. For the same compound, the EC50 ([3]; 3T3-L1, read-out: Test Material at Half Maximal Secretion, estimated from the slope of Hofstee plots) was 0.085 µg/mL (≈ 0.193 µM), the activity at 0.625 µg/mL [8] was 89% and the activity at 5 µg/mL [8] was 143%.
In the case of CC(C)Cc1ccc(C(C)C(=O)O)cc1 (stereo not drawn) [Ibuprofen], the “% Inhibition (maximum, IL-6 secretion)” value [4] is reported as 54* %, the “Concentration (dose providing the maximum inhibition of IL-6 secretion)” value [4] is reported as 0.625 µg/mL and the “Concentration (of maximum stimulation of adiponectin secretion)” value [5] is reported as 0.625 µg/mL. For the same compound, the “% Stimulation” value [5] was 22%.
